The values that follow come from US8633204B2 (Pfizer Inc., priority 2006, dated 2014).

For the test, the system named is PI3-K in BT20 cells (phosphorylation of AKT at serine 473). The test can be described thus: PI3-Kα Cellular Assay (AKT Ser473 phosphorylation ELISA in BT20 cells). The note with it: Homo sapiens, BT-20, pAKT Ser473 ELISA, 1 hour incubation. It counts as cell-based, human. The protocol: Compounds of the present invention were evaluated for potency against PI3-K using a cellular assay as follows.
Healthy growing human breast cancer cells BT20 (PI3K mutated) are used for the assay. BT20 cells are grown in 10% FBS+GLN (1:100)+PS (1:100)+1 mM Sodium Pyruvate+0.1 mM Sodium Bicarbonate+Non-Essential Amino Acids Solution (1:100) MEM medium (MEM+all). […] The cells are re-suspended in 10% FBS MEM all and are centrifuged down at 1400 rpm for 5 minutes. The cells are re-suspended in 0.5% FBS MEM all and are counted on a cell counter. The cells are seeded at 25,000 cells/well in volume of 100 μL/well in 0.5% FBS MEM all in a 96 well flat-bottom plate. The negative control wells receive only 100 μL of 0.5% FBS MEM all medium without cells. The plate is incubated overnight in a cell culture incubator with 5% CO2 at 37° C.
On day 2, testing compounds are prepared in 0.5% FBS MEM all medium and serially diluted at 1:3 for 11 test concentrations. Each concentration of the compounds is tested in duplicate. The compound solutions are added at 25 μL/well to the corresponded wells in cell plate, and 25 μL/well of the vehicle (0.5% DMSO in 0.5% FBS MEM all) is added to the negative control wells (no cells) and the positive control wells (cells without compounds). The plate is incubated for 1 hour in a cell culture incubator with 5% CO2 at 37° C. After 1 hour of incubation, the medium is removed, 100 μL/well of cell lysis buffer is added into the cell plate, and shake for 15 minutes at room temperature. […] After 1 hour, empty the contents of the wells, wash the plate 4 times with the wash buffer, and add 100 μL of TMB substrate solution (catalog #T0440, Sigma) into each well, and incubate with gentle shaking at room temperature for […]. After 15 minutes of color development, add 100 μL of stop solution (1N hydrochloric acid) to each well, and read the plate at 450 nm on ELISA plate reader.
Usually IC50 stands for the concentration that gives 50% inhibition. The low end stands for greater potency in that assay, the high end for weaker potency in that assay. With `Cc1nc(N)nc2c1cc(-c1cn[nH]c1)c(=O)n2C1CCCC1` [Compound 101, 2-amino-8-cyclopentyl-6-(1H-pyrazol-4-yl)-4-methylpyrido[2,3-d]pyrimidin-7(8H)-one], inhibition was half-maximal at 3.49 nM (IC50).

Turning to `CCNc1nc(C)c2cc(CCC(N)=O)c(=O)n(C3CCCC3)c2n1` [Compound 118, 3-[8-cyclopentyl-2-(ethylamino)-4-methyl-7-oxo-7,8-dihydropyrido[2,3-d]pyrimidin-6-yl]propanamide], the IC50 worked out at 8370 nM.

As to `CCNc1nc(C)c2cc(CCC(=O)Nc3ccccn3)c(=O)n(C3CCCC3)c2n1` [Compound 122, 3-[8-cyclopenlyl-2-(ethylamino)-4-methyl-7-oxo-7,8-dihydropyrido[2,3-d]pyrimidin-6-yl]-N-pyridin-2-ylpropanamide], 10000 nM corresponded to half-maximal inhibition (IC50).

Take `Cc1nc(N)nc2c1cc(-c1cccnc1N)c(=O)n2C1CCCC1` [Compound 125, 2-amino-6-(2-aminopyridin-3-yl)-8-cyclopentyl-4-methylpyrido[2,3-d]pyrimidin-7(8H)-one]: the half-maximal inhibitory concentration (IC50) stood at 9010 nM.

In the case of `CCNc1nc(C)c2cc(-c3ccc(O)c(OC)c3)c(=O)n(C3CCCC3)c2n1` [Compound 136, 8-cyclopentyl-2-(ethylamino)-6-(4-hydroxy-3-methoxyphenyl)-4-methylpyrido[2,3-d]pyrimidin-7(8H)-one], half-maximal inhibition (IC50) was put at 26.3 nM.

`CCNc1nc(C)c2cc(-c3ccc(OC)nc3)c(=O)n(C3CCCC3)c2n1` [Compound 139, 8-cyclopentyl-2-(ethylamino)-6-(6-methoxypyridin-3-yl)-4-methylpyrido[2,3-d]pyrimidin-7(8H)-one] displayed an IC50 of 17 nM.

For the compound `CNc1nc(C)c2cc(-c3ccc(OC)nc3)c(=O)n(C3CCCC3)c2n1` [Compound 140], the IC50 amounted to 0.793 nM.

As for `CCOC(=O)c1cccc(-c2cc3c(C)nc(NC)nc3n(C3CCCC3)c2=O)c1` [Compound 141, ethyl 3-[8-cyclopentyl-4-methyl-2-(methylamino)-7-oxo-7,8-dihydropyrido[2,3-d]pyrimidin-6-yl]benzoate], the midpoint of inhibition, the IC50, lay at 10000 nM.

In turn, `CCNc1nc(C)c2cc(-c3cccc(O)c3)c(=O)n(C3CCCC3)c2n1` [Compound 144, 8-cyclopentyl-2-(ethylamino)-6-(3-hydroxyphenyl)-4-methylpyrido[2,3-d]pyrimidin-7(8H)-one] yielded an IC50 of 3.05 nM.

On to `Cc1nc(N)nc2c1cc(Br)c(=O)n2[C@H]1CC[C@H](O)CC1` [Compound 157, 2-amino-6-bromo-8-(trans-4-hydroxycyclohexyl)-4-methylpyrido[2,3-d]pyrimidin-7(8H)-one], for which the IC50 worked out at 305 nM.

For the compound `Cc1nc(N)nc2c1cc(Br)c(=O)n2[C@@H]1CC[C@H](O)C1` [Compound 160, 2-amino-6-bromo-8-[(1R,3S)-3-hydroxycyclopentyl]-4-methylpyrido[2,3-d]pyrimidin-7(8H)-one], the IC50 stood at 1040 nM.

For the compound `Cc1nc(N)nc2c1cc(-c1cnn(C)c1)c(=O)n2[C@@H]1CC[C@H](O)C1` [Compound 161, 2-amino-8-[(1R,3S)-3-hydroxycyclopentyl]-4-methyl-6-(1-methyl-1H-pyrazol-4-yl)pyrido[2,3-d]pyrimidin-7(8H)-one], the IC50 stood at 934 nM.

Turning to `Cc1nc(N)nc2c1cc(-c1cn[nH]c1)c(=O)n2[C@@H]1CC[C@H](O)C1` [Compound 162, 2-amino-8-[(1R,3S)-3-hydroxycyclopentyl]-4-methyl-6-(1H-pyrazol-4-yl)pyrido[2,3-d]pyrimidin-7(8H)-one], the IC50 was 47.2 nM.

On to `Cc1nc(N)nc2c1cc(-c1cnn(C)c1)c(=O)n2[C@@H]1CC[C@@H](O)C1` [Compound 164, 2-amino-8-[(1R,3R)-3-hydroxycyclopentyl]-4-methyl-6-(1-methyl-1H-pyrazol-4-yl)pyrido[2,3-d]pyrimidin-7(8H)-one], for which the IC50 turned out to be 1300 nM.

With `Cc1nc(N)nc2c1cc(-c1cn[nH]c1)c(=O)n2[C@@H]1CC[C@@H](O)C1` [Compound 166, 2-amino-8-[(1R,3R)-3-hydroxycyclopentyl]-4-methyl-6-(1H-pyrazol-4-yl)pyrido[2,3-d]pyrimidin-7(8H)-one], 262 nM corresponded to half-maximal inhibition (IC50).

With `Cc1nc(N)nc2c1cc(Br)c(=O)n2CC(C)(C)O` [Compound 167, 2-amino-6-bromo-8-(2-hydroxy-2-methylpropyl)-4-methylpyrido[2,3-d]pyrimidin-7(8H)-one], the IC50 is 2360 nM.

As to `COc1ccc(-c2cc3c(C)nc(N)nc3n(CC(C)(C)O)c2=O)cn1` [Compound 169, 2-amino-8-(2-hydroxy-2-methylpropyl)-6-(6-methoxypyridin-3-yl)-4-methylpyrido[2,3-d]pyrimidin-7(8H)-one], the IC50 was 340 nM.

`Cc1nc(N)nc2c1cc(-c1cnc3[nH]ccc3c1)c(=O)n2CC(C)(C)O` [Compound 172, 2-amino-8-(2-hydroxy-2-methylpropyl)-4-methyl-6-(1H-pyrrolo[2,3-b]pyridin-5-yl)pyrido[2,3-d]pyrimidin-7(8H)-one] had an IC50 of 116 nM.

On to `COc1ccc(-c2cc3c(C)nc(N)nc3n([C@H]3CC[C@@H](O)CC3)c2=O)cn1` [Compound 174, 2-amino-8-(cis-4-hydroxycyclohexyl)-6-(6-methoxypyridin-3-yl)-4-methylpyrido[2,3-d]pyrimidin-7(8H)-one], for which the half-inhibitory concentration (IC50) was 19 nM.

`Cc1nc(N)nc2c1cc(-c1cn[nH]c1)c(=O)n2C1CCC(=O)CC1` [Compound 176, 2-amino-4-methyl-8-(4-oxocyclohexyl)-6-(1H-pyrazol-4-yl)pyrido[2,3-d]pyrimidin-7(8H)-one] showed an IC50 of 4.66 nM.

`COc1ncc(-c2cc3c(C)nc(N)nc3n([C@H]3CC[C@@H](O)CC3)c2=O)cc1F` [Compound 177] registered an IC50 of 8.02 nM.

The compound `COc1ncc(-c2cc3c(C)nc(N)nc3n([C@H]3CC[C@H](OC)CC3)c2=O)cc1F` [Compound 180, 2-amino-6-(5-fluoro-6-methoxypyridin-3-yl)-8-(trans-4-methoxycyclohexyl)-4-methylpyrido[2,3-d]pyrimidin-7(8H)-one] came in with an IC50 of 3.39 nM.

In turn, `Cc1nc(N)nc2c1cc(-c1ccc(N(C)C)nc1)c(=O)n2[C@H]1CC[C@@H](O)CC1` [Compound 181, 2-amino-6-[6-(dimethylamino)pyridin-3-yl]-8-(cis-4-hydroxycyclohexyl)-4-methylpyrido[2,3-d]pyrimidin-7(8H)-one] had an IC50 of 17.6 nM.

As for `CO[C@H]1CC[C@H](n2c(=O)c(-c3cn[nH]c3)cc3c(C)nc(N)nc32)CC1` [Compound 183, 2-amino-8-(trans-4-methoxycyclohexyl)-4-methyl-6-(1H-pyrazol-4-yl)pyrido[2,3-d]pyrimidin-7(8H)-one], half-maximal inhibition (IC50) was put at 4.69 nM.

Take `COc1ncc(-c2cc3c(C)nc(N)nc3n([C@H]3CC[C@H](O)CC3)c2=O)cc1F` [Compound 191, 2-amino-6-[5-fluoro-6-methoxypyridin-3-yl)-8-(trans-4-hydroxycyclohexyl)-4-methylpyrido[2,3-d]pyrimidin-7(8H)-one]: the IC50 turned out to be 3.1 nM.

Compound `COc1ccc(-c2cc3c(C)nc(N)nc3n(C3CCOCC3)c2=O)cn1` [Compound 200, 2-amino-6-(6-methoxypyridin-3-yl)-4-methyl-8-(tetrahydro-2H-pyran-4-yl)pyrido[2,3-d]pyrimidin-7(8H)-one] returned an IC50 of 71.4 nM.
